Experimental data taken from US20160115540A1, “PRODRUGS AND DRUGS” (Biogen MA Inc., priority 2013, published 2016).
Structures can show the parent of a compound that is named as a salt.

System: blood and tissues
Experiment: Transcriptional profiling, acute (single) dosing, EAE mice: blood and tissues
Type: in vivo
Conditions: for Number of differentially expressed genes identified: Brain / Number of differentially expressed genes identified: Cerebellum / Number of differentially expressed genes identified: Lymph Node / Number of differentially expressed genes identified: Spleen / Number of differentially expressed genes identified: Whole blood / Number of differentially expressed genes identified: Spinal Cord: EAE, Acute Dosing
From the text: EAE induction is generally performed by immunization with brain extracts, CNS proteins (such as myelin basic protein), or peptides from such protein emulsified in an adjuvant such as complete Freund's adjuvant, e.g., as described in Linker et al., Brain. 2011 March 134(Pt3): 678-92. […] FIG. 17 depicts exemplary immunophenotyping panels used to analyze various immune cell populations (e.g., T cells, T regulatory cells, NK cells, B cells, myeloid cells). […] The number of independent mice whose tissues were harvested for transcript profiling studies and whose data passed QC is shown in TABLE 15. Animals were exposed to CO2 and whole blood collected via cardiac puncture. Two 100 μl aliquots of whole blood were collected in 1.5 mL microcentrifuge tubes and snap frozen in liquid nitrogen. Peripheral (liver, spleen, kidney and jejunum) and CNS brain (cerebellum, hippocampus, striatum and cortex) tissues were harvested and snap frozen in liquid nitrogen, with special care taken to collect tissues of similar size and from the same location. All samples were stored at -80° C. until RNA extraction was conducted. For RNA preparation, frozen tissues were placed in 2 mL RNAse-free 96-well blocks with 1.5 mL QIAzol Lysis Reagent (QIAgen) and a 3.2 mm stainless steel bead (BioSpec Products, Bartlesville, Okla.). Tissues were disrupted for four cycles of 45 seconds in a Mini-Beadbeater (Biospec Products). RNA was extracted in chloroform and the aqueous phase was mixed with an equal volume of 70% ethanol. Extracted RNA was applied to RNeasy 96 plates and purified by the spin method according to the manufacturer's protocol (RNeasy 96 Universal Tissue Protocol, QIAgen, Hilden Germany). 50 ul of snap frozen mouse blood was re-suspended in lysis buffer with proteinase K and arrayed into deep-well plates for automated RNA extraction. RNA extractions were completed on […] (Beckman Coulter, Indianapolis, Ind.) using Agencourt RNAdvance Blood kit (Part number A35604) according to the manufacturer's specifications. RNA integrity was assessed using the HT RNA reagent kit (Part number 760410, Caliper Life Sciences, Hopkinton, Mass.) using a LabChip GX (PerkinElmer, Waltham, Mass.). RNA samples with a RQS score of >8.0 were considered high quality for downstream microarray processing. […] Washing and staining of the hybridized arrays were completed as described in the GeneChip Expression analysis technical manual for HT plate arrays using the Genechip® Array Station (Affymetrix, Santa Clara, Calif.) with modifications as described in […] et al. The processed GeneChip® plate arrays were scanned using GeneTitan scanner (Affymetrix, Santa Clara, Calif.). Affymetrix scans were subject to quality control (QC) measures. These tests included a visual inspection of the distribution of raw signal intensities and an assessment of RNA degradation, relative log expression (RLE), and normalized unscaled standard error (NUSE). All sample scans that passed these QC metrics were included in the analysis. […] Nucleic Acids Res 2003; 31:e15; Li C, et al. Genome Biol 2001; 2:[…]0032). […] Stat Appl Genet Mol Biol 2004; 3:Article3). […] Springer Science+Business Media 2005). […] Generally, no distinct sample groupings were apparent from this analysis; however, in the following cohorts, differences in EAE severity across the mice were manifest in global gene expression patterns: An example of this animal grouping is shown in FIG. 33 for the spinal cord from the chronically-dosed 7 h EAE mice. […] Three distinct groups of mice result from unsupervised clustering, and these animal groups correlate with the cumulative EAE score. […] Subsequent analyses for the cohorts listed above only included those animals with the most severe EAE scores; however, for the cohorts 'Spinal Cord, Acute Dosing, 7 h' and 'Spleen, Acute Dosing, 12 h,' there were an insufficient number of mice in the different treatment groups to perform such a sub-analysis. […]

[1] = 100 mpk DMF-vs-90 mpk MMF, 7 h after last dosing
[2] = 100 mpk DMF-vs-90 mpk MMF, 12 h after last dosing
[3] = 100 mpk DMF-vs-Vehicle, 7 h after last dosing
[4] = 100 mpk DMF-vs-Vehicle, 12 h after last dosing
[5] = lymph node, 100DMF-vs-Veh, 12 h
[6] = whole blood, 100DMF-vs-Veh, 7 h

COC(=O)/C=C/C(=O)OC [DMF, dimethyl fumarate]
Number of differentially expressed genes identified: Brain [1]: 0
Number of differentially expressed genes identified: Cerebellum [1]: 0
Number of differentially expressed genes identified: Lymph Node [1]: 0
Number of differentially expressed genes identified: Spleen [1]: 0
Number of differentially expressed genes identified: Whole blood [1]: 0
Number of differentially expressed genes identified: Brain [2]: 0
Number of differentially expressed genes identified: Cerebellum [2]: 0
Number of differentially expressed genes identified: Lymph Node [2]: 0
Number of differentially expressed genes identified: Spinal Cord [2]: 0
Number of differentially expressed genes identified: Whole blood [2]: 0
Number of differentially expressed genes identified: Brain [3]: 0
Number of differentially expressed genes identified: Cerebellum [3]: 0
Number of differentially expressed genes identified: Lymph Node [3]: 7
Number of differentially expressed genes identified: Spleen [3]: 21
Number of differentially expressed genes identified: Whole blood [3]: 3
Number of differentially expressed genes identified: Brain [4]: 0
Number of differentially expressed genes identified: Cerebellum [4]: 0
Number of differentially expressed genes identified: Lymph Node [4]: 2
Number of differentially expressed genes identified: Spinal Cord [4]: 1
Number of differentially expressed genes identified: Whole blood [4]: 0
differentially expressed genes (cerebellum, 100DMF-vs-90MMF, 7 h): None
differentially expressed genes (cerebellum, 100DMF-vs-90MMF, 12 h): None
differentially expressed genes (cerebellum, 100DMF-vs-Veh, 7 h): None
differentially expressed genes (cerebellum, 100DMF-vs-Veh, 12 h): None
differentially expressed genes (lymph node, 100DMF-vs-90MMF, 7 h): None
differentially expressed genes (lymph node, 100DMF-vs-90MMF, 12 h): None
FC Aox1 (1419435_PM_at) (lymph node, 100DMF-vs-Veh, 7 h): 2.16
FC F3 1417408_PM_at (lymph node, 100DMF-vs-Veh, 7 h): 1.59
FC Gclm 1439050_PM_at (lymph node, 100DMF-vs-Veh, 7 h): 1.53
FC Nqo1 (1423627_PM_at) (lymph node, 100DMF-vs-Veh, 7 h): 2.19
FC Pir (1429001_PM_at) (lymph node, 100DMF-vs-Veh, 7 h): 1.52
FC Srxn1 (1419942_PM_at) (lymph node, 100DMF-vs-Veh, 7 h): 1.71
FC Srxn1 (1426875_PM_s_at) (lymph node, 100DMF-vs-Veh, 7 h): 1.68
FC Aox1 (1419435_PM_at) [5]: 1.69
FC Nqo1 (1423627_PM_at) [5]: 1.69
differentially expressed genes (spinal cord, 100DMF-vs-90MMF, 12 h): None
FC Blvrb (1451386_PM_at) (spinal cord, 100DMF-vs-Veh, 12 h): 1.84
differentially expressed genes (spleen, 100DMF-vs-90MMF, 7 h): None
FC 1441413_PM_at (spleen, 100DMF-vs-Veh, 7 h): 1.52
FC 1458902_PM_at (spleen, 100DMF-vs-Veh, 7 h): 1.69
FC Aox1 (1419435_PM_at) (spleen, 100DMF-vs-Veh, 7 h): 1.74
FC Cat 1416430_PM_at (spleen, 100DMF-vs-Veh, 7 h): 1.63
FC Dennd4a 1435975_PM_at (spleen, 100DMF-vs-Veh, 7 h): 1.56
FC Dnmt31 1425035_PM_s_at (spleen, 100DMF-vs-Veh, 7 h): 1.81
FC Gclm 1439050_PM_at (spleen, 100DMF-vs-Veh, 7 h): 2.02
FC Gsta3 (1423436_PM_at) (spleen, 100DMF-vs-Veh, 7 h): 1.74
FC Gsta3 (1423437_PM_at) (spleen, 100DMF-vs-Veh, 7 h): 1.55
FC Higd1c /// Mettl7a1 /// Mettl7a2 1434150_PM_a_at (spleen, 100DMF-vs-Veh, 7 h): 2.00
FC Il1f9 1425958_PM_at (spleen, 100DMF-vs-Veh, 7 h): 2.33
FC Kif22 1437716_PM_x_at (spleen, 100DMF-vs-Veh, 7 h): 1.53
FC LOC677317 /// Me1 1416632_PM_at (spleen, 100DMF-vs-Veh, 7 h): 1.52
FC Nqo1 (1423627_PM_at) (spleen, 100DMF-vs-Veh, 7 h): 3.34
FC Pir (1429001_PM_at) (spleen, 100DMF-vs-Veh, 7 h): 2.99
FC Polh 1447837_PM_x_at (spleen, 100DMF-vs-Veh, 7 h): 1.51
FC Srxn1 (1419942_PM_at) (spleen, 100DMF-vs-Veh, 7 h): 2.08
FC Srxn1 (1426875_PM_s_at) (spleen, 100DMF-vs-Veh, 7 h): 2.08
FC Srxn1 (1451680_PM_at) (spleen, 100DMF-vs-Veh, 7 h): 1.84
FC Tmem41b 1428586_PM_at (spleen, 100DMF-vs-Veh, 7 h): 1.61
FC Ugt1a1 /// Ugt1a10 /// Ugt1a2 /// Ugt1a5 /// Ugt1a6a /// Ugt1a6b /// Ugt1a7c /// Ugt1a9 (1426261_PM_s_at) (spleen, 100DMF-vs-Veh, 7 h): 1.51
differentially expressed genes (whole blood, 100DMF-vs-Veh, 12 h): None
differentially expressed genes (whole blood, 100DMF-vs-90MMF, 7 h): None
differentially expressed genes (whole blood, 100DMF-vs-90MMF, 12 h): None
FC Dtx4 1436545_PM_at [6]: 1.72
FC Egln3 1418649_PM_at [6]: 1.82
FC Rnf128 (1449036_PM_at) [6]: 1.62
